Measured values reported in US20090023810A1, “METHODS OF TRANSLATION AND/OR INFLAMMATION BLOCKADE” (priority 2007, published 2009).

Experiments:
[1] = target: T1, eIF4GI-eIF4A interaction (Homo sapiens, UniProt P60842); test: eIF4GI-eIF4A co-immunoprecipitation from 293T cell lysates; format: biochemical; conditions: 293T cell extract, 50 μM, 30° C., 1 hour, FIG. 7A
T1 construct: expressed in transfected cells; host or cells: 293T
Protocol: 293T cells transfected with DNAs were lysed using the NP-40 lysis buffer. The lysates were clarified by centrifugation at 14,000 g for 15 minutes. Anti-FLAG monoclonal antibody (4 μg) was incubated with 20 μl of Protein G-agarose (GE Healthcare) for 1 hour in 1 ml NP-40 lysis buffer at 4° C. Lysates were pre-cleared with 10 μl of protein G-agarose at 4° C. for 30 minutes. After pre-clearing, cell lysates were treated with 50 μM of EtOH, PGE2, or 15d-PGJ2 at 30° C. for 1 hour, followed by centrifugation. Then protein G agarose-conjugated antibodies were incubated with the pre-cleared lysates at 4° C. for 1 hour. Precipitates were washed three times with lysis buffer and analyzed by SDS-PAGE.
The mechanism by which 15d-PGJ2 inhibits translation was investigated by monitoring the effects of 15d-PGJ2 on translational initiation complex formation as shown FIG. 7A. eIF4G is a scaffold protein that recruits eIF4E, eIF4A, eIF3, and PABP into the translational initiation complex. The effect of 15d-PGJ2 on the eIF4GI-eIF4A interaction was monitored by a co-immunoprecipitation assay. 293T cells were co-transfected with HA-eIF4B and FLAG-eIF4A1 (provided by Dr. Yongjun Dang and Dr. Jian Liu, Johns Hopkins). Cells were lysed then treated with 50 μM of PGE2 or 15d-PGJ2 at 30° C. for 1 hour. Immunoprecipitation was performed with an anti-FLAG antibody.

[2] = test system: HeLa cells; test: Ribosome (polysome) profiling with sucrose gradient in HeLa cells; format: cell-based; conditions: SA 400 μM 30 minutes; 15d-PGJ2 or PGE2 50 μM 1 hour, FIG. 4C
Protocol: Experiments were performed as described elsewhere (Kedersha et al., 2000, which is hereby incorporated by reference for all purposes as if fully set forth herein) using a 0.5-1.5 M sucrose gradient.
It is well known that inhibition of translation and SG formation alters the polysome profile. HeLa cells were mock-treated or treated with SA (400 μM) for 30 minutes, 15d-PGJ2 (50 μM) for 1 hour, or PGE2 (50 μM) for 1 hour. A sucrose gradient experiment was performed as described above, and the obtained results are shown in FIG. 4C, wherein the lines show observance at 254 nm.

[3] = test system: eIF2α; test: Phosphorylated eIF2α levels in HeLa cell lysates (in vitro translation mixtures), Western blot; format: biochemical; conditions: FIG. 5B lanes 2-8
Protocol: In FIG. 5B, HeLa lysates that were pretreated with vehicle (1) or with indicated chemicals (2-9) for 30 minutes at indicated concentrations, a capped Renilla luciferase mRNA (40 nM) was added to the translation mixtures, and then incubated at 30° C. for 1 hour (grey columns). White columns show the effects of the same set of chemicals added together with the reporter mRNA during 1 hour in vitro translation. Relative luciferase activities (mean values) are depicted by columns. Phosphorylated eIF2α levels were monitored by Western-blot analyses (bottom panel). […] The molecular basis of this phenomenon remains to be determined.
This would be the reason why translation is not inhibited by SA in the HeLa cell lysates (FIG. 5B, lane 8) unlike in the in vivo system where eIF2α is phosphorylated by SA ([…]).

[4] = target: T2, eIF4A1 (Homo sapiens, UniProt P60842, C264S); test: Streptavidin pull-down with biotinylated prostaglandins; format: binding; conditions: FLAG-eIF4A1 from 293T cells, FIG. 6E lane 4
T2 construct: His; gift of Dr. Nadejda Korneeva, Louisiana State University
T2 sequence (P60842 2-406 C264S): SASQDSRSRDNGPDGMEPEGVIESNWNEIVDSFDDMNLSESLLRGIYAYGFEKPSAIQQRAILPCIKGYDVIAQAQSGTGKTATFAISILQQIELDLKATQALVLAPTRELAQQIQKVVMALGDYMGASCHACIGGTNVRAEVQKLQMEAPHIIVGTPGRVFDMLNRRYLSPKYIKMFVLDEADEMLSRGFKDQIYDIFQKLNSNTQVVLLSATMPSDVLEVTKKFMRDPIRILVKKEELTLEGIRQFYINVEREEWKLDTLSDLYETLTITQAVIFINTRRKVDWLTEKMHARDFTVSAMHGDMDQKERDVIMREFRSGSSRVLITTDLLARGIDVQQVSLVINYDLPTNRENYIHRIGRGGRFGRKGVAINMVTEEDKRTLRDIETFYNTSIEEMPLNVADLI

[5] = test system: eIF4A1; test: as above; format: binding, human
[6] = test system: HeLa cells; test: Stress granule (SG) formation in HeLa cells, immunocytochemistry; format: cell-based; conditions: HeLa
Protocol: The immunocytochemical analyses of proteins were performed as described elsewhere (Kim et al., 2005, which is hereby incorporated by reference for all purposes as if fully set forth herein).
HeLa cells that were mock-treated (Mock) or treated with PGA1, 15d-PGJ2, PGE2, SA, arachidonic acid (AA), ciglitazone (Ci), troglitazone (Tro), and rosiglitazone (Rosi) (at indicated concentrations) for 30 minutes.
HeLa cells were treated with lovastatin (100 μM), lipoxin A4 (LXA4, 10 μM), lipoxin B4 (LXB4, 10 μM), epi-lipoxin A4 (epi-LxA4, 10 μM), TGF-β (100 ng/ml), interleukin-10 (IL-10, 100 ng/ml) for 1 hour.
Emetine freezes ribosomes in the polysomal state and inhibits SG formation (Anderson and Kedersha, 2006). HeLa cells that were pretreated for 1 hour with 10 μg/ml of emetine and then treated with 15d-PGJ2 (50 μM) for 1 hour, and subjected to immunocytochemical analyses.
The amounts of 15d-PGJ2 required for SG formation were measured.

[7] = test system: eIF2α; test: Phosphorylated eIF2α levels in HeLa cells, Western blot; format: cell-based
Protocol: Phosphorylated eIF2α levels were monitored by Western-blot analyses using HeLa cell extracts (40 μg) treated with 15d-PGJ2 (lanes 2-4), PGA1 (5), PGE2 (6), Rosi (7), or SA (8) at the indicated concentrations for 30 minutes or with heat at 44° C. for 30 minutes, and the obtained results are shown in FIG. 2A.
As SG formation is accompanied by translational blockade, the effects of 15d-PGJ2 on protein synthesis were investigated. In FIG. 4A, HeLa cells grown on 60-mm dishes up to about 70-80% confluence were mock-treated (1) or treated with PGA1 (2, 3, and 4), 15d-PGJ2 (5 and 6 and 7), or PGE2 (8, 9, and 10) at the indicated concentrations in FIG. 4A for 30 minutes. Then in vivo labeling of newly synthesized proteins was performed as described above. 4200 CPM was obtained from the TCA-precipitated control sample (lane 1), and phosphorylated eIF2α levels were monitored by Western-blot analyses (bottom panel). In FIG. 4B, cells were mock-treated (1), treated with SA (400 μM) (2 and 3), with PGA1 (90 μM) (4-6), with 15d-PGJ2 (90 μM) (7-9), and with PGE2 (90 μM) (10-12) as indicated times. Newly synthesized proteins were measured as panel (A). 4500 CPM was obtained from the TCA-precipitated control sample (lane 1). Phosphorylated eIF2α levels were monitored by Western-blot analyses (bottom panel) and the obtained results are shown in FIG. 4B.

[8] = 30 minutes, TIA-1 antibody, FIG. 1A

T1 sequence (P60842 whole entry): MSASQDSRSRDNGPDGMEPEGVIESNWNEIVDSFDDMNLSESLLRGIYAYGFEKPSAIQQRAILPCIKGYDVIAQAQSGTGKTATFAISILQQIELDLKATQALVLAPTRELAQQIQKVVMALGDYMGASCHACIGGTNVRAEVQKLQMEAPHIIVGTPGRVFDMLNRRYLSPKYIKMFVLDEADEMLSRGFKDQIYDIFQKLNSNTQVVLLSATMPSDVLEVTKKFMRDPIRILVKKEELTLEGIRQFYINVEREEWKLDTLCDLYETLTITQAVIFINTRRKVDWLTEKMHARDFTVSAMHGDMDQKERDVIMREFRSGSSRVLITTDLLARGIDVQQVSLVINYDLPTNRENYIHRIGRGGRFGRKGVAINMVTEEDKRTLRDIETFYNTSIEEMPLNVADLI
T1 sequence (P23588 whole entry partner): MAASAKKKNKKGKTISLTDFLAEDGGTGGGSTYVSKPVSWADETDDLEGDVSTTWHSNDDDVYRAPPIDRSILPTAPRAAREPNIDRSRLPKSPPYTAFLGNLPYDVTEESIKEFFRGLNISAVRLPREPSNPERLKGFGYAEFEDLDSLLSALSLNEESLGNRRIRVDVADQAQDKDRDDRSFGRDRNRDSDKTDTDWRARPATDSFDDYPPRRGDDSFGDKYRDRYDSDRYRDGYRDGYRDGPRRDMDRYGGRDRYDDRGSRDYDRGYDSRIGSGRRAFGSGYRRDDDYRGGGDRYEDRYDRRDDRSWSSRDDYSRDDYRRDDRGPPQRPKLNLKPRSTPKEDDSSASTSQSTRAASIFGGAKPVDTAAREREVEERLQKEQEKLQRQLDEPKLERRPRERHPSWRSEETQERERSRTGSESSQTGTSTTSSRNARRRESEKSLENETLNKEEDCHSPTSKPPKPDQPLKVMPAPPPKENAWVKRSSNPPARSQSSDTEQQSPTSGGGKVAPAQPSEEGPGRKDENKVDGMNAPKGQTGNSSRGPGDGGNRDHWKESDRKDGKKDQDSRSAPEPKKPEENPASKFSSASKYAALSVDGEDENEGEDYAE

Structure (SMILES) | Co-precipitation of eIF4GI with eIF4A1 [1] | Polysome profile / ribosomal shift [2] | eIF2α phosphorylation [3] | Binding to eIF4A with the C264S mutation [4] | Binding to other mutant forms of eIF4A ([5]; FLAG-eIF4A1 from 293T cells, FIG. 6E lanes 2 and 3) | Binding site on eIF4A ([5]; from cysteine to serine mutants, FIG. 6E) | SG formation ([6]; 10 μM, 12-24 hours, FIG. 1D) | SG formation [6, 8] | SG inducer strength compared ([6]; FIG. 1A panel b vs c) | Phosphorylation of eIF2α ([7]; HeLa cells of the labeling experiment, FIGS. 4A and B bottom panels) | eIF2α phosphorylation ([7]; HeLa cells, 30 minutes, FIG. 2A)
CCCCC/C=C/C=C1/C(=O)C=C[C@@H]1C/C=C\CCCC(=O)O [15d-PGJ2, 15-deoxy-delta 12,14-prostaglandin J2] | eIF4GI was not co-precipitated with eIF4A1 | Ribosomal shift to the subunit state was also observed | No increase of eIF2α phosphorylation | could not interact with 15d-PGJ2 | bound to 15d-PGJ2 | directly binds to the cysteine residue 264 | SGs were formed | induced SG formation | stronger SG inducer than PGA1 | No significant phosphorylation of eIF2α | no significant increase in eIF2α phosphorylation
CCCCC[C@H](O)/C=C/[C@H]1[C@H](O)CC(=O)[C@@H]1C/C=C\CCCC(=O)O [PGE2, prostaglandin E2] | eIF4GI was co-precipitated with eIF4A1 | did not induce a ribosomal shift | No increase of eIF2α phosphorylation | – | – | – | – | did not induce SG formation | – | – | –
